# What was measured:
# human MCHR1 [1] = biological target: T1, human MCHR1 (Homo sapiens, UniProt Q99705); assay: Human MCH receptor 1 (MCHR1) competitive binding assay, [125I]-MCH(4-19), CHO cell membrane fraction; conditions: test compound 0.1 μM, human MCHR1-expressing CHO cell membrane, 25° C., 1 hr, read-out: Binding inhibition rate (0.1 μM)
# T1 construct: expressed in transfected cells; host or cells: CHO cell clone 57 (membrane fraction)
# Description: Determination of Human MCH Receptor 1 (MCHR1) Competitive Inhibitory Activity of Test Compound Using Binding Assay
# Using human MCHR1(=SLC-1 receptor)-expressing CHO cell clone 57 and rat MCHR1-expressing CHO cell clone 44 described in WO01/82925, MCHR1-expressing CHO cellular membrane fractions were prepared by the following method. In phosphate buffered saline (pH 7.4) supplemented with 5 mM EDTA (ethylenediaminetetraacetic acid) were respectively suspended human and rat MCHR1-expressing CHO cells (1×10^8 cells) and centrifuged. Homogenate buffer (10 mL, 10 mM NaHCO3, 5 mM EDTA, pH 7.5, 0.5 mM PMSF (phenylmethylsulfonyl fluoride), 20 mg/L leupeptin, 4 mg/L E-64, 1 mg/L pepstatin A) was added to the pellets of the cells and, using Polytron Homogenizer, the mixture was homogenated. The supernatant obtained after centrifugation at 400×g for 10 min was further centrifuged at 100,000×g for 1 hr to give precipitate of the membrane fraction. The precipitate were suspended in 2 mL of assay buffer [20 mM Tris-HCl (pH 7.5), 5 mM EDTA, 0.5 mM PMSF, 20 mg/L leupeptin, 4 mg/L E-64, 1 mg/L pepstatin A]. The membrane fractions were suspended in assay buffer to a protein concentration of 2 mg/mL, and after dispensing, preserved at −80° C. and used upon thawing each time when in use.
# The MCHR1 ligand binding inhibitory activity of the test compound was determined as follows. An MCHR1-expressing CHO cellular membrane fraction (175 μL) diluted with an assay buffer was dispensed to a 96 well polypropylene plate (3363, Corning). DMSO solution (2 μL), 100 μm cold MCH(1-19) diluted with DMSO solution (2 μL), or a test compound solution diluted with DMSO solution to various concentrations (2 μL) was added, and lastly, [^125I]-MCH(4-19) diluted with assay buffer (25 μL) was added to each well. The reaction mixture was reacted at 25° C. for 1 hr with stirring, and the reaction mixture was filtered by suction using a glass filter plate (GF/C, PerkinElmer). The filter was washed 3 times with a wash solution (300 μL, 50 mM Tris-HCl buffer, pH 7.5). The glass filter plate was dried, a liquid scintillator was added at 25 μL/well, and the residual radioactivity was measured by TopCount (PerkinElmer). The binding inhibition rate of the test compound was calculated by the following formula. Binding inhibition (%)=(radioactivity upon addition of test compound and hot MCH−radioactivity upon addition of cold MCH and hot MCH solution)/(radioactivity upon addition of DMSO solution and hot MCH−radioactivity upon addition of cold MCH and hot MCH solution)×100
# human MCHR1 [2] = biological target: T1, human MCHR1; assay: MCH receptor 1 antagonistic activity, Ca2+ mobilization assay in human MCHR1-expressing CHO cells; assay type: cell-based; conditions: test compound 0.1 μM; human MCHR1-expressing CHO cell; ligand MCH (4-19) peptide 20 nM; Fluo4 fluorescence; read-out: Inhibition rate (%)
# Description: Measurement of MCH Receptor 1 Antagonistic Activity of Test Compound Using Ca^2+ Mobilization Assay
# CHO cell (CHO dhfr^−, clone #4) expressing a recombinant human MCHR1 gene for Ca^2+ mobilization assay was prepared by us. The cell was cultured in MEMα medium [445 mL of MEMα medium without nucleic acid and added with 5 mL of Penicillin-Streptomycin (Invitrogen) and 50 mL of dialyzed fetal bovine serum]. An integrated dispensing function fluorometer (CellLux, PerkinElmer) was used for Ca^2+ mobilization assay. CHO cells were sown in a 96 well plate (type 3904, Corning) with a black plate wall and clear well bottom at a density of 20000 cells/well, and cultured in an incubator for about 24 hr at 5% CO2, 37° C. The medium was removed, and the cells were washed with phosphate buffered saline (PBS). A Ca^2+ indicator dye reagent (DOJINDO LABORATORIES, Ca screening no-wash kit Fluo4) was added at 90 μL/well, and the dye was allowed to penetrate into the cell for 30 min in an incubator at 5% CO2, 37° C. The plate was set on a plate reader, a test compound solution diluted with an assay buffer [10 mM HEPES (pH 7.4), 1× assay buffer containing 0.1% BSA (DOJINDO LABORATORIES, attached to Ca screening no-wash kit Fluo4)] or DMSO solution was added at 10 μL/well, and ligand MCH (4-19) peptide (final concentration 20 nM) diluted with assay buffer or DMSO was added at 50 μL/well, during which changes in intracellular fluorescence were measured at 2 second intervals. The antagonistic activity of the test compound was calculated and shown as an inhibition rate (%) wherein the intracellular fluorescence activity resulting from the stimulation by the addition of ligand MCH (4-19) peptide was 100% and that of the well added with DMSO solution alone was 0%.
# [3] = test system: Dietary obese male F344/Jcl rats; assay: Anorectic effect (food intake) in dietary obese male F344/Jcl rats; assay type: in vivo; conditions: Rattus norvegicus, 48 h; oral, 0.5% methylcellulose suspension (5 mg/mL) at 2 mL/kg, on start day and evening of next day; food intake from initial administration to 2 days later; vs control group; read-out: Food intake inhibition rate (%)
# From the text: Evaluation of Anorectic Effect Using Dietary Obese Male F344/Jcl Rats
# Dietary obese male F344/Jcl rats (42-57-week-old) reared on a high-fat diet (Research Diets: D12451) from 5 weeks of age were used. From before the start of experiment, the rats were independently raised, a powder high-fat diet (Research Diets: D12451M) was given, tap water was orally administered for acclimation, and thereby the rats were habituated. The food intake from the evening of the day before the start of experiment to the next morning was measured, and the rats were grouped based on the food intake and the body weight of the previous day as indices. On the day of the start of experiment and in the evening of the next day, 0.5% methylcellulose solution was orally administered to the control group, and 0.5% methylcellulose suspension (5 mg/mL) of the test compound was orally administered to the compound administration group at 2 mL/kg (6 per group for both control group and compound administration group). The food intake from the initial administration to 2 days later was measured. The food intake inhibition rate of each compound administration group to the control group was calculated.
# T1 sequence (Q99705 whole entry): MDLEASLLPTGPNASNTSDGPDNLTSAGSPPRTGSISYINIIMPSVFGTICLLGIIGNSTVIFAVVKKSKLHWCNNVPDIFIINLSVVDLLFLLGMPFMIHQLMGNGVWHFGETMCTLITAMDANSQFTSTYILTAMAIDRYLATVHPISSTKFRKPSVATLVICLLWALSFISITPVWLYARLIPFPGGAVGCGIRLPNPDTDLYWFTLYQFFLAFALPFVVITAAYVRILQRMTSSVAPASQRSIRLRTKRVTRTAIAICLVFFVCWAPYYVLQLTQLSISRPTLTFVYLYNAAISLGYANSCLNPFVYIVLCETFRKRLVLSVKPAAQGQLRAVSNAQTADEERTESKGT
structure (smiles),measurement,setting,value
"Cc1c(NC(=O)c2ccc(OC[C@@H]3CCCO3)cc2F)ccc2cc(CN[C@H]3CC[C@](C)(O)CC3)n(C)c12 [Example 88, 2-fluoro-N-(2-{[(trans-4-hydroxy-4-methylcyclohexyl)amino]methyl}-1,7-dimethyl-1H-indol-6-yl)-4-[(2S)-tetrahydrofuran-2-ylmethoxy]benzamide]",inhibition at 0.1 µM,human MCHR1 [1],95%
same,inhibition at 0.1 µM,human MCHR1 [2],98%
same,inhibition in vivo at 10 mg/kg,[3],17.5%
same,melting point,,131 to 132 °C
